# According to patent US20240139147A1, “METHOD FOR IMPROVING BIOAVAILABILITY OF NAD+ DERIVATIVES” (HOBOOMLIFE BIO-TECHNOLOGY (SHENZHEN) CO., LTD., priority 2022, published 2024):
# Experiments:
# Assay type in all cases: in vivo
# Conditions in all cases: SD rats, intragastric; for NAD+ level in blood: 100 mg/kg NMN and/or 10 mg/kg quercetin
# [1] = tested on: NAD+; experiment: Increasing the level of NAD+ by controlled-release NMN microspheres 1-3, blood NAD+ by HPLC (Example 3)
# Protocol: (§1) 28 SD rats weighing about 200 g were purchased, and an experiment was carried out after one week of adaptive feeding. The 28 rats were divided into 7 groups, 4 rats per group (half male and half female). The rats in group 1 were not treated, the rats in group 2 were administered intragastrically with 100 mg/kg of NMN, the rats in group 3 were administered intragastrically with 10 mg/kg of quercetin, the rats in group 4 were administered intragastrically with 100 mg/kg of NMN and 10 mg/kg of quercetin at the same time, the rats in group 5 were administered intragastrically with the controlled-release microspheres 1 containing 100 mg/kg of NMN and 10 mg/kg of quercetin, the rats in group 6 were administered intragastrically with the controlled-release NMN microspheres 2 containing 100 mg/kg of NMN and 10 mg/kg of quercetin, and the rats in group 7 were administered intragastrically with the controlled-release NMN microspheres 3 containing 100 mg/kg of NMN and 10 mg/kg of quercetin.
# Blood was collected from the rat in each groups via the tail vein at time points of 2 h, 2.5 h, 3 h, 3.5 h, 4 h, 4.5 h, 5 h, 5.5 h, and 6 h, respectively, after intragastric administration of corresponding microspheres, and 0.1 mL of blood was collected each time by each rat. After the vein blood collected from the rat in each groups at each time point was treated, the NAD+ level in the blood sample was tested by high performance liquid chromatography (HPLC). The test results of 4 rats in each group were averaged. […] Different parameters are set in the preparation processes of the controlled-release NMN microsphere 1, the controlled-release NMN microsphere 2, and the controlled-release NMN microsphere 3, so the time intervals between release peaks of quercetin and release peaks of NMN in the microspheres are different. A time difference between a peak of the releasing of quercetin and a peak of the releasing of NMN in the controlled-release NMN microsphere 1 is 1 h-2 h, a time difference between a peak of the releasing of quercetin and a peak of the releasing of NMN in the controlled-release NMN microsphere 2 is 0.5 h-1.5 h, and a time difference between a peak of the releasing of quercetin and a peak of the releasing of NMN in the controlled-release NMN microsphere 3 is 0 h-1 h.
# [2] = tested on: NAD+; experiment: Increasing the level of NAD+ by controlled-release NMN microspheres 2, 5, 6, blood NAD+ by HPLC (Example 9)
# Protocol: as §1, with “the controlled-release NMN microspheres 2” for “the controlled-release microspheres 1”, “NMN microspheres 2 containing 100” for “controlled-release microspheres 1 containing 100”, “NMN microspheres 5 containing 100” for “NMN microspheres 2 containing 100”, “NMN microspheres 6 containing 100” for “NMN microspheres 3 containing 100”
# Blood was collected from the rat in each groups via the tail vein at time points of 2 h, 2.5 h, 3 h, 3.5 h, 4 h, 4.5 h, 5 h, 5.5 h, and 6 h, respectively, after intragastric administration of corresponding microspheres, and 0.1 mL of blood was collected each time by each rat. After the vein blood collected from the rat in each groups at each time point was treated, the NAD+ level in the blood sample was tested by high performance liquid chromatography (HPLC). The test results of 4 rats in each group were averaged. […] There are time differences between a peak of the releasing of quercetin and a peak of the releasing of NMN in the controlled-release NMN microsphere 2, the controlled-release NMN microsphere 5, and the controlled-release NMN microsphere 6 that are prepared based on difference mass ratios of quercetin (the CD38 inhibitor) to NMN, and the time differences between a peak of the releasing of quercetin and a peak of the releasing of NMN in the three microspheres are consistent and are all about 0.5-1.5 h.
# [3] = tested on: NAD+; experiment: Increasing the level of NAD+ by controlled-release NMN microspheres 2, 9, 10, blood NAD+ by HPLC (Example 15)
# Protocol: as §1, with “10 mg/kg quercetin at” for “10 mg/kg of quercetin at”, “the controlled-release NMN microspheres 2” for “the controlled-release microspheres 1”, “NMN microspheres 2 containing 100” for “controlled-release microspheres 1 containing 100”, “NMN microspheres 9 containing 100” for “NMN microspheres 2 containing 100”, “NMN microspheres 10 containing 100” for “NMN microspheres 3 containing 100”
# Blood was collected from each rat in the groups via the tail vein at time points of 2 h, 2.5 h, 3 h, 3.5 h, 4 h, 4.5 h, 5 h, 5.5 h, and 6 h, respectively, after intragastric administration of corresponding microspheres, and 0.1 mL of blood was collected each time by each rat. After the vein blood collected from each rat in the groups at each time point was treated, the NAD+ level in the blood sample was tested by high performance liquid chromatography (HPLC). The test results of 4 rats in each group were averaged. […] There are time differences between a peak of the releasing of quercetin and a peak of the releasing of NMN in the controlled-release NMN microsphere 2, the controlled-release NMN microsphere 9, and the controlled-release NMN microsphere 10 that are prepared based on different mass ratios of quercetin (the CD38 inhibitor) to the excipient and different mass ratios of NMN to the excipient, and the time differences between a peak of the releasing of quercetin and a peak of the releasing of NMN in the three microspheres are consistent and are all about 0.5-1.5 h.
SMILES,level of NAD+ in the rat compared with the blank group (in words) [1],NAD+ level in blood ([1]; 2 h),NAD+ level in blood ([1]; 2.5 h),NAD+ level in blood ([1]; 3 h),NAD+ level in blood ([1]; 3.5 h),NAD+ level in blood ([1]; 4 h),NAD+ level in blood ([1]; 4.5 h),NAD+ level in blood ([1]; 5 h),NAD+ level in blood ([1]; 5.5 h),NAD+ level in blood ([1]; 6 h),level of NAD+ in the rat compared with the blank group (in words) [2],NAD+ level in blood ([2]; 2 h),NAD+ level in blood ([2]; 2.5 h),NAD+ level in blood ([2]; 3 h),NAD+ level in blood ([2]; 3.5 h),NAD+ level in blood ([2]; 4 h),NAD+ level in blood ([2]; 4.5 h),NAD+ level in blood ([2]; 5 h),NAD+ level in blood ([2]; 5.5 h),NAD+ level in blood ([2]; 6 h),also measured
"NC(=O)c1ccc[n+]([C@@H]2O[C@H](COP(=O)([O-])O)[C@@H](O)[C@H]2O)c1 [NMN, nicotinamide mononucleotide]",can increase the level of NAD+ in the rat,139 µM,207 µM,173 µM,159 µM,150 µM,145 µM,148 µM,152 µM,147 µM,can increase the level of NAD+ in the rat,133 µM,197 µM,168 µM,159 µM,143 µM,148 µM,139 µM,144 µM,140 µM,level of NAD+ in the rat compared with the blank group (in words) [3]: can increase the level of NAD+ in the rat; NAD+ level in blood ([3]; 2 h): 134 µM; NAD+ level in blood ([3]; 2.5 h): 193 µM; NAD+ level in blood ([3]; 3 h): 153 µM; NAD+ level in blood ([3]; 3.5 h): 168 µM; NAD+ level in blood ([3]; 4 h): 142 µM; NAD+ level in blood ([3]; 4.5 h): 137 µM; NAD+ level in blood ([3]; 5 h): 131 µM; NAD+ level in blood ([3]; 5.5 h): 138 µM; NAD+ level in blood ([3]; 6 h): 134 µM
"O=c1c(O)c(-c2ccc(O)c(O)c2)oc2cc(O)cc(O)c12 [Quercetin, quercetin]",can increase the level of NAD+ in the rat,145 µM,152 µM,178 µM,160 µM,147 µM,150 µM,151 µM,144 µM,149 µM,can increase the level of NAD+ in the rat,127 µM,146 µM,180 µM,164 µM,151 µM,144 µM,147 µM,130 µM,137 µM,level of NAD+ in the rat compared with the blank group (in words) [3]: can increase the level of NAD+ in the rat; NAD+ level in blood ([3]; 2 h): 121 µM; NAD+ level in blood ([3]; 2.5 h): 140 µM; NAD+ level in blood ([3]; 3 h): 176 µM; NAD+ level in blood ([3]; 3.5 h): 158 µM; NAD+ level in blood ([3]; 4 h): 146 µM; NAD+ level in blood ([3]; 4.5 h): 138 µM; NAD+ level in blood ([3]; 5 h): 141 µM; NAD+ level in blood ([3]; 5.5 h): 124 µM; NAD+ level in blood ([3]; 6 h): 132 µM
